From article PMC9785606, “Design and Synthesis of Novel Phenylahistin Derivatives Based on Co-Crystal Structures as Potent Microtubule Inhibitors for Anti-Cancer Therapy” (Marine Drugs, 2022)
Marks after values point to notes of the source that are not given here.

Key:
[1] = test system: H22 hepatoma carcinoma cells transplanted tumor; test: H22 subcutaneous transplanted tumor model, intravenous administration; settings: for Tumor Volume (D15): 14 consecutive days; for Tumor Volume (D1): D1 (baseline), mean ± SD; for Tumor Weight: excised at end of administration; for IR (tumor weight inhibition rate): IR = (1 − TWt/TWc) × 100%
Method: The anticancer effect of the compound 15p was further evaluated against H22 tumor-bearing mice models by intravenous injection at doses of 2 mg/kg, or 4 mg/kg, two or three times a week, and for 14 consecutive days. Docetaxel (10 mg/kg), plinabulin (4 mg/kg), and cyclophosphamide (20 mg/kg) were used as the positive controls.
Balb/c mice (4–6 weeks old, 16–18 g) were purchased from Shanghai Sippr-BK laboratory animal Co. Ltd. The animal study protocol was approved by Institutional Review Board of Science and Technology Division of Linyi University (review opinion on behalf of the Ethics Committee) (The protocol code is LYU20220107, provided on 10 March 2022). H22 cells were grown in RPMI-1640 midium supplemented with 10% fetal bovine serum, and maintained at 37 °C in humidified 5% CO2. Cells were passaged when they reached 70–80% confluence. Viable H22 cells (1 × 10^7 cells/0.2 ml 0.9% sodium chloride) were injected into the peritoneal cavity of BALB/C mice to trigger ascitic cell growth. Later, cells were harvested and suspended. H22 cancer cells (2 × 10^7 cells/0.1 ml 0.9% sodium chloride cells) were subcutaneously injected into the right flank of each mouse. After implantation, the tumor size was measured with an electronic caliper twice a week, and the tumor volume was calculated according to the following formula: tumor volume (mm^3) = 0.5 × length × width^2. When the tumor volume reached about 130 mm^3, the xenograft tumor-bearing BALB/C mice were randomly placed into six groups at 10 mice per group: vehicle, plinabulin (4 mg/kg), 15p ([…]), 15p ([…]), cyclophosphamide (20 mg/kg) and docetaxel (10 mg/kg) groups. Docetaxel, plinabulin, and cyclophosphamide were chosen as positive control drug. The reference compound docetaxel and cyclophosphamide were completely dissolved in isotonic saline. […] The solution of compound 15p was diluted with the concentrated solution and in isotonic saline at a calculated ratio. The solutions of plinabulin were made up according to similar methods. The mice received intravenous administration (iv) every two or three days for consecutive 14 days. The tumor volumes and the body weights were recorded every two or three days after treatment. At the end of the administration period, the animals were euthanized by dislocation, and the tumor bulks were peeled off conforming to the Guide for the Animal use and Management of Shanghai Medicilon Biological Medicine Co. Ltd. The tumor volume was calculated according to the Principles of Non-clinical Research Techniques for Anti-tumor Drugs of Cytotoxic Drugs by China Food and Drug Administration.

[2] = Plasma stability in vitro; format: in vitro ADME, wistar rats; settings: 10 μmol/L, 37 °C, up to 120 min
Method: Compounds 15p. 15p were weighed and dissolved in DMSO to prepare a master batch with a concentration of 1 mg/mL. The plasma was obtained from wistar male rats, and stored at −20 °C for pending use. The 10 μmol/L of the sample solution to be tested was vortexed and mixed, and rapidly incubated in a 37 °C water bath shaker. The 100 μL of the incubation system was removed at 0 min, 5 min, 10 min, 20 min, 40 min, 60 min, 90 min, and 120 min of the reaction, respectively. The remaining amount of compound was detected (note: each sample was operated three times in parallel). The concentrations of the samples to be measured (15p) in rat plasma were detected by HPLC-MS/MS, and the experimental data were processed and plotted using the computer programs Microsoft Excel (Microsoft 97–2003, Redmond, Washington, DC, USA) and Origin 8.5 (OriginLab, Northampton, MA, USA).

[3] = test system: human lung cancer NCI-H460 cell line; test: MTT cytotoxicity assay, lung cancer NCI-H460 cell line; format: cell-based; settings: Homo sapiens, NCI-H460, 72 h, mean ± SD
Method: (§1) Human cancer cell lines (lung cancer NCI-H460 cell line, pancreatic cancer BxPC-3 cell line, colon cancer HT-29 cell line) were purchased from American Type Cell Culture Collection (ATCC, Manassas, VA, USA). Cells were maintained in RPMI-1640 medium supplemented with 10% (v/v) heat-inactivated fetal bovine serum, penicillin-streptomycin (100 U/mL-100 […]) at 37 °C in a humidified atmosphere (5% CO2–95% air). All tested derivatives were dissolved in 100% cell culture grade DMSO. Cells (3 × 10^3 per well) were seeded in 96-well plates for 24 h. Then, cells were treated with the tested compounds in six concentrations for 72 h. Cell viability was assessed by MTT assay. The absorbance at 490 nm was measured with a Microplate Reader (Molecular Devices, Silicon Valley, CA, USA). The data were analyzed by Origin 8.5 (OriginLab, Northampton, MA, USA).

[4] = test system: microtubules in NCI-H460 cells; test: Immunofluorescence assay of microtubules (β-tubulin/DAPI staining); format: cell-based, human; settings: 2 nM, 24 h
Method: To further explore the effect of phenylahistin derivatives 1 and 15p on microtubules in cancer cells, an immunofluorescence assay was performed. […] The inhibitory activities were consistent with the previously shown anti-proliferative activities.
NCI-H460 cells were seeded in 24-well plate (with coverslips plated) at the density of 5 × 10^4 cells. […] Then, cells were fixed with 4% cold paraformaldehyde at 4 °C for 15 min and then permeabilized in 0.05% Triton X-100 for 10 min. The cells were blocked in 1% BSA for 30 min. Microtubules were detected by incubation with a monoclonal anti-β-tubulin (β-tubulin antibody was obtained from Servicebio, Wuhan, China.) at 4 °C for 12 h. Subsequently, the cells were washed with PBS and incubated with a FITC-conjugated anti-mouse IgG antibody. Nuclei were stained with DAPI (G1012, Servicebio, Wuhan, China). The coverslips were visualized under fluorescence microscope (Nikon Eclipse C1, Nikon, Japan) and an image-forming system (Nikon DS-U3, Nikon, Tokyo, Japan).

caspase-3 = test: Western blotting of caspase-3 expression; format: cell-based
Method: Western blot was performed as previously described with antibody caspase-3 (1:1000) (WB0177/WB0176) or GAPDH (1:3000) (WB0197/WB0196, Shanghai Wei-Ao Biotechnology Co., Shanghai, China). Densities of the Western blotting bands were quantified using ImageJ 19.0. (NIH, Bethesda, MD, USA).

[5] = test system: colon cancer HT-29 cell line; test: MTT cytotoxicity assay, colon cancer HT-29 cell line; format: cell-based; settings: Homo sapiens, 72 h, mean ± SD
Method: as §1

[6] = test system: pancreatic cancer BxPC-3 cell line; test: MTT cytotoxicity assay, pancreatic cancer BxPC-3 cell line; format: cell-based; settings: Homo sapiens, 72 h, mean ± SD
Method: as §1

[7] = 2 mg/kg iv, listed as Compound 15p
[8] = 4 mg/kg iv, listed as Compound 15p

With `C=CCn1cnc(/C=c2\[nH]c(=O)/c(=C/c3cccc(C(=O)c4ccc(F)cc4)c3)[nH]c2=O)c1C(C)C` [15p] the “Tumor Volume (D15)” value ([1]; 2 mg/kg iv) was 1453.6 mm^3, the “Tumor Volume (D15)” value [1, 7] was 1453.6 ± 909.5 mm^3 and the “Tumor Volume (D1)” value ([1]; 2 mg/kg iv) was 103.7 ± 29.99 mm^3. The “Tumor Weight” value ([1]; 2 mg/kg iv) was 0.82 g, the “Tumor Weight” value [1, 7] was 0.82 ± 0.47 g and the “IR (tumor weight inhibition rate)” value ([1]; 2 mg/kg iv) was 27.6%. The “Tumor Volume (D15)” value ([1]; 4 mg/kg iv) was 674.5 mm^3, the “Tumor Volume (D15)” value [1, 8] was 674.5 ± 274.0* mm^3 and the “Tumor Volume (D1)” value ([1]; 4 mg/kg iv) was 102.2 ± 28.62 mm^3. For the same compound, the “Tumor Weight” value ([1]; 4 mg/kg iv) was 0.39 g, the “Tumor Weight” value [1, 8] was 0.39 ± 0.22 g and the “IR (tumor weight inhibition rate)” value ([1]; 4 mg/kg iv) was 65%. The “IR (tumor weight inhibition rate)” value [1, 8] was 65.2%, the Plasma stability [2] was “very stable” and the IC50 [3] was 1.03 ± 0.18 nM. The melting point was 200 to 202 °C, the “Effect on microtubule networks” value [4] was “microtubule networks were damaged” and the “Expression of caspase-3 vs control group and plinabulin group” value (caspase-3) was “significantly higher”. For the same compound, the “Upregulation of caspase-3” value (caspase-3; 10 nM) was “strongest upregulation of caspase-3”, the IC50 [5] was 0.67 ± 0.064 nM and the IC50 [6] was 0.81 ± 0.02 nM.
